Our source for the IC50 values is patent US9328099B2, “Cyanomethylpyrazole carboxamides as janus kinase inhibitors” (Merck Sharp & Dohme Corp., priority 2011, dated 2016).

The target of this assay is JAK1 (Homo sapiens (Human), UniProt P23458). Briefly: Jak Biochemical HTRF Assay, JAK1. To be noted: HTRF biochemical assay, GST-tagged catalytic domain; top concentration tested […]; read-out: JAK1 IC50. The text has this:
Jak Biochemical HTRF Assay Protocol
Subsequent reagent additions employed an Agilent Bravo.
On the technique in general: Time-resolved FRET reads energy transfer from a long-lived donor to a nearby acceptor.

Molecules are shown by their SMILES.

Chain of JAK1 (P23458 875-1153): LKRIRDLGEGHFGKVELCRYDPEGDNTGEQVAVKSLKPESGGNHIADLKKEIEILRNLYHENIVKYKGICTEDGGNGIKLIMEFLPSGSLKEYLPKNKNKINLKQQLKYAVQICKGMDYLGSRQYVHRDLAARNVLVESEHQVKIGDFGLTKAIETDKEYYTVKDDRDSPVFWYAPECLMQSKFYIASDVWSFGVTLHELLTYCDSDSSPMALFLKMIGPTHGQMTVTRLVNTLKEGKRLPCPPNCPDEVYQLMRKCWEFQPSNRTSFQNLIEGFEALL

As for `CCc1ccc(NC(=O)N2CC(CC#N)(n3cc(C(N)=O)c(Nc4ccccc4)n3)C2)cc1` [Example 38-34, 1-{3-(cyanomethyl)-1-[(4-ethylphenyl)carbamoyl]azetidin-3-yl}-3-(phenylamino)-1H-pyrazole-4-carboxamide], the IC50 amounted to 2 nM.

Regarding `CC(C)(C)OC(=O)N1CCC(CC#N)(n2cc(C(N)=O)c(Nc3cccc(Br)c3)n2)CC1` [Example 12-1, tert-Butyl 4-{3-[(3-bromophenyl)amino]-4-carbamoyl-1H-pyrazol-1-yl}-4-(cyanomethyl)piperidine-1-carboxylate], the IC50 was 1 nM.

As to `N#CCC1(n2cc(C(N)=O)c(Nc3ccccc3)n2)CCN(Cc2cc3ccccc3o2)CC1` [Example 21-20, 1-[1-(1-benzofuran-2-ylmethyl)-4-(cyanomethyl)piperidin-4-yl]-3-(phenylamino)-1H-pyrazole-4-carboxamide], the half-maximal inhibitory concentration (IC50) turned out to be 10 nM.

With `N#CCC1(n2cc(C(N)=O)c(Nc3ccccc3)n2)CCN(C(=O)OCCN2CCOCC2)CC1` [Example 30-41, 2-morpholin-4-ylethyl 4-[4-carbamoyl-3-(phenylamino)-1H-pyrazol-1-yl]-4-(cyanomethyl)piperidine-1-carboxylate], the IC50 is 31 nM.

Turning to `N#CCC1(n2cc(C(N)=O)c(Nc3ccc(S(=O)(=O)C(F)(F)F)cc3)n2)CCN(C(=O)OC2COC2)CC1` [Example 30-26, oxetan-3-yl 4-(4-carbamoyl-3-(4-(trifluoromethylsulfonyl)phenylamino)-1H-pyrazol-1-yl)-4-(cyanomethyl)piperidine-1-carboxylate], the IC50 came out at 0.2 nM.

Turning to `N#CCC1(n2cc(C(N)=O)c(Nc3ccnc(F)c3)n2)CCC(Nc2ccccc2)CC1` (stereo not drawn) [Example 40-86, Cis or trans 1-[1-(cyanomethyl)-4-(phenylamino)cyclohexyl]-3-[(2-fluoropyridin-4-yl)amino]-1H-pyrazole-4-carboxamide], the IC50 was 0.06 nM.

In the case of `N#CCC1(n2cc(C(N)=O)c(Nc3ccc(F)cc3)n2)CCN(c2cncc3ccccc23)CC1` [Example 3-2, 1-[4-(cyanomethyl)-1-isoquinolin-4-ylpiperidin-4-yl]-3-[(4-fluorophenyl)amino]-1H-pyrazole-4-carboxamide], the IC50 amounted to 6 nM.

Regarding `N#CCC1(n2cc(C(N)=O)c(Nc3ccccc3)n2)CCN(C(=O)c2ccccn2)CC1` [Example 34-9, 1-[4-(cyanomethyl)-1-(pyridin-2-ylcarbonyl)piperidin-4-yl]-3-(phenylamino)-1H-pyrazole-4-carboxamide], the IC50 came out at 18 nM.

For the compound `N#CCC1(n2cc(C(N)=O)c(Nc3ccc(F)cc3)n2)CCC(Nc2ccc(F)c(F)c2)CC1` (stereo not drawn) [Example 40-35, Cis or trans 1-{1-(cyanomethyl)-4-[(3,4-difluorophenyl)amino]cyclohexyl}-3-[(4-fluorophenyl)amino]-1H-pyrazole-4-carboxamide], the IC50 came out at 0.8 nM.

Regarding `CC(C)(C)COC(=O)N1CC(CC#N)(n2cc(C(N)=O)c(Nc3ccccc3)n2)C1` [Example 30-56, 2,2-dimethylpropyl 3-[4-carbamoyl-3-(phenylamino)-1H-pyrazol-1-yl]-3-(cyanomethyl)azetidine-1-carboxylate], the IC50 turned out to be 18 nM.

As to `N#CCC1(n2cc(C(N)=O)c(Nc3ccc(F)cc3)n2)CCN(c2cccc(F)c2)CC1` [Example 3-27, 1-[4-(cyanomethyl)-1-(3-fluorophenyl)piperidin-4-yl]-3-[(4-fluorophenyl)amino]-1H-pyrazole-4-carboxamide], the IC50 is 1 nM.

`N#CCC1(n2cc(C(N)=O)c(Nc3ccc(F)cc3)n2)CCSCC1` [Example 7, 1-(4-(Cyanomethyl)tetrahydro-2H-thiopyran-4-yl)-3-((4-fluorophenyl)amino)-1H-pyrazole-4-carboxamide]: the IC50 is 8 nM.

On to `COc1cccc(Nc2nn(C3(CC#N)CCN(C(=O)OC(C)(C)C)CC3)cc2C(N)=O)n1` [Example 13-9, tert-butyl 4-(4-carbamoyl-3-(6-methoxypyridin-2-ylamino)-1H-pyrazol-1-yl)-4-(cyanomethyl)piperidine-1-carboxylate], for which the IC50 was 10 nM.

By IC50 is commonly meant the point on the concentration scale where inhibition reaches its midpoint.
